# Results: US20240207410A1, “STABILIZED LIQUID COMPOSITIONS COMPRISING A LEVODOPA-TYROSINE CONJUGATE AND USES THEREOF” (NeuroDerm, Ltd., priority 2021, published 2024)
# Where a SMILES comes first, the peptide text is derived from it. [ ]: non-standard residue; d: D form. pY = N[C@@H](Cc1ccc(OP(=O)(O)O)cc1)C(=O)O; Dopa = N[C@@H](Cc1ccc(O)c(O)c1)C(=O)O
# Key:
# Type in all cases: physicochemical
# [1] = Evaluation of solution stability, pH 7.4, 60° C.; conditions: phosphate buffer pH 7.4, about 1 mg/mL, after about 1 day
# Procedure: A phosphate buffer solution at pH 7.4 was added to each of the compounds to dissolve the each of the compounds, and when necessary, a NaOH solution was added to adjust the pH of the mixture to prepare a solution of about 1 mg/mL. After storing this solution at 60° C. for about 1 day, HPLC purity (area percentage, %) was measured. The HPLC purity of the solution immediately after the preparation, or the HPLC purity of the compound, was subtracted from the HPLC purity after storage at 60° C. for about 1 day to obtain a HPLC purity difference.
# [2] = Evaluation of solution stability, pH 7.4, 25° C.; conditions: for HPLC purity difference: phosphate buffer pH 7.4, about 1 mg/mL, 25° C.
# Procedure: A phosphate buffer solution at pH 7.4 was added to each of the compounds to dissolve the each of the compounds, and when necessary, a NaOH solution was added to adjust the pH of the mixture to prepare a solution of about 1 mg/mL. After storing this solution at 25° C. for about 1 day, HPLC purity (area percentage, %) was measured. The HPLC purity of the solution immediately after the preparation, or the HPLC purity of the compound, was subtracted from the HPLC purity after storage at 25° C. for about 1 day to obtain a HPLC purity difference. […] In Tables 9-1 and 9-2, “LDP-Ala” represents L-Tyrosine,N-L-alanyl-3-hydroxy-(9CI) and has the following structural formula: […]
# [3] = Evaluation of solubility in water; conditions: for pH of filtrate: filtrate of the solubility test; for solubility at 24 h: thermodynamic from solid, water, shaken at 25° C. for 24 hours
# Procedure: Water was added to each of the compounds to prepare a suspension, which was shaken at 25° C. for 24 hours, and then, filtration through a filter was performed to obtain a filtrate. A compound concentration in the filtrate was quantified using HPLC to obtain the solubility. Further, the pH of the filtrate was measured.
# [4] = Long-term stability of 30% LD-Tyrosine/0.75% carbidopa at 2-8° C.
# Procedure: The formulation also included 0.5% ascorbic acid (Asc), 0.5% N-acetyl cysteine (NAC) and 0.3% Tween 80. The formulation was stored at 2-8° C. for the time indicated, and % recovery and % LD-Tyr-DKP formation (an impurity) were tested. Percent recovery remained high over time. The DKP impurity accumulated over time.
SMILES,HPLC purity difference [1] [%],HPLC purity difference ([2]; after about 1 day) [%],pH of filtrate [3],solubility at 24 h [3] [mg/mL],stability in aqueous solutions near neutrality [2],also measured
"C[C@H](N)C(=O)N[C@@H](Cc1ccc(O)c(O)c1)C(=O)O [LDP-Ala, L-Tyrosine,N-L-alanyl-3-hydroxy-(9CI), reference compound] (H-Ala-[Dopa]-OH)",−25.00,−3.80,–,–,–,–
"C[C@H](N)C(=O)N[C@@H](Cc1ccc(OP(=O)(O)O)c(O)c1)C(=O)O [Example 1, (2S)-2-[[(2S)-2-aminopropanoyl]amino]-3-(3-hydroxy-4-phosphonooxyphenyl) propanoic acid]",−1.61,−0.03,2.6,15.6,stable,–
"C[C@@](Cc1ccc(O)c(O)c1)(NN)C(=O)O [Carbidopa, carbidopa, reference compound]",–,–,–,–,–,mg/mL (concentration in formulation) ([4]; 1 month): 7.32 mg/mL; mg/mL (concentration in formulation) ([4]; 1 week): 7.36 mg/mL; mg/mL (concentration in formulation) ([4]; 2 months): 7.32 mg/mL; mg/mL (concentration in formulation) ([4]; 2 weeks): 7.30 mg/mL; mg/mL (concentration in formulation) ([4]; 3 months): 7.35 mg/mL; mg/mL (concentration in formulation) ([4]; t = 0): 7.37 mg/mL
"NCCCC[C@H](N)C(=O)N[C@@H](Cc1ccc(OP(=O)(O)O)c(O)c1)C(=O)O [Example 8, (2S)-2-[[(2S)-2,6-diaminohexanoyl]amino]-3-(3-hydroxy-4-phosphonooxyphenyl) propanoic acid]",–,–,–,–,stable,HPLC purity difference ([2]; after 1.9 days): 0.25 (after 1.9 days) %
"N[C@@H](Cc1ccc(OP(=O)(O)O)cc1)C(=O)N[C@@H](Cc1ccc(O)c(O)c1)C(=O)O [Example 10, (2S)-2-[[(2S)-2-amino-3-(4-phosphonooxyphenyl)propanoyl]amino]-3-(3,4-dihydroxyphenyl) propanoic acid] (H-[pY]-[Dopa]-OH)",–,−0.67,–,–,–,–
"N[C@@H](Cc1ccc(O)c(O)c1)C(=O)N[C@@H](Cc1ccc(OP(=O)(O)O)c(O)c1)C(=O)O [Example 2, (2S)-2-[[(2S)-2-amino-3-(3,4-dihydroxyphenyl)propanoyl]amino]-3-(3-hydroxy-4-phosphonooxyphenyl) propanoic acid]",–,−3.53,2.6,> 31.1,–,–
